Measurements published in the supplement of paper PMC10307832.

What was measured:
Experiment in all cases: relative viability (nuclei count vs DMSO), 5 days (fraction); higher = more cells survive
201T = test system: 201T
Summary of the method: (§1)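 After 5 days of treatment, lung cancer cells in 1536-well plates were fixed and stained in a single step (final 0.05% Triton X-100, 1% formaldehyde, 1 ug/ml Hoechst) and their nuclei counted on 4× images. Treatment had been applied by pin tool the day after seeding as one drug alone or as a fixed anchor-drug dose with five library-drug doses (not always all listed) in √10 steps. Relative viability is the nuclei count of treated wells divided by that of vehicle wells, and values are medians of duplicate plates.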

COR-L 105 = test system: COR-L 105
Summary of the method: as §1

ChaGo-K-1 = test system: ChaGo-K-1
Summary of the method: as §1

EPLC-272H = test system: EPLC-272H
Summary of the method: as §1

H3255 = test system: H3255
Summary of the method: as §1

HCC-78 = test system: HCC-78
Summary of the method: as §1

HCC-827 = test system: HCC-827
Summary of the method: as §1

LC-2-ad = test system: LC-2-ad
Summary of the method: as §1

LCLC-97TM1 = test system: LCLC-97TM1
Summary of the method: as §1

NCI-H1666 = test system: NCI-H1666
Summary of the method: as §1

NCI-H1915 = test system: NCI-H1915
Summary of the method: as §1

NCI-H2087 = test system: NCI-H2087
Summary of the method: as §1

NCI-H2126 = test system: NCI-H2126
Summary of the method: as §1

NCI-H2347 = test system: NCI-H2347
Summary of the method: as §1

NCI-H23 = test system: NCI-H23
Summary of the method: as §1

NCI-H2405 = test system: NCI-H2405
Summary of the method: as §1

NCI-H322M = test system: NCI-H322M
Summary of the method: as §1

NCI-H520 = test system: NCI-H520
Summary of the method: as §1

NCI-H647 = test system: NCI-H647
Summary of the method: as §1

NCI-H650 = test system: NCI-H650
Summary of the method: as §1

NCI-H661 = test system: NCI-H661
Summary of the method: as §1

PC-14 = test system: PC-14
Summary of the method: as §1

RERF-LC-KJ = test system: RERF-LC-KJ
Summary of the method: as §1

`O=C(O)c1ccc(-c2c[nH]c3ncc(-c4ccccc4)cc23)cc1C1CCCC1` + C[C@@H](Oc1cc(-c2cnn(C3CCNCC3)c2)cnc1N)c1c(Cl)ccc(F)c1Cl [Crizotinib] (partner 1 µM) was tested, and the relative viability (201T; first compound 0.04 µM) was 1.06, the relative viability (201T; first compound 0.1265 µM) was 1.04 and the relative viability (201T; first compound 0.4 µM) was 0.941. For the same compound, the relative viability (201T; first compound 1.265 µM) was 0.979, the relative viability (COR-L 105; first compound 0.04 µM) was 0.857 and the relative viability (COR-L 105; first compound 0.1265 µM) was 0.789. For the same compound, the relative viability (COR-L 105; first compound 0.4 µM) was 0.723, the relative viability (COR-L 105; first compound 1.265 µM) was 0.792 and the relative viability (ChaGo-K-1; first compound 0.04 µM) was 1.11. For the same compound, the relative viability (ChaGo-K-1; first compound 0.1265 µM) was 1.1, the relative viability (ChaGo-K-1; first compound 0.4 µM) was 1.04 and the relative viability (ChaGo-K-1; first compound 1.265 µM) was 0.846. The relative viability (EPLC-272H; first compound 0.04 µM) was 0.974, the relative viability (EPLC-272H; first compound 0.1265 µM) was 1.01 and the relative viability (EPLC-272H; first compound 0.4 µM) was 0.989. It also gave a relative viability (EPLC-272H; first compound 1.265 µM) of 0.655, a relative viability (H3255; first compound 0.04 µM) of 0.953 and a relative viability (H3255; first compound 0.1265 µM) of 0.851. It also gave a relative viability (H3255; first compound 0.4 µM) of 0.825, a relative viability (H3255; first compound 1.265 µM) of 0.9 and a relative viability (HCC-78; first compound 0.04 µM) of 0.338. For the same compound, the relative viability (HCC-78; first compound 0.1265 µM) was 0.381, the relative viability (HCC-78; first compound 0.4 µM) was 0.328 and the relative viability (HCC-78; first compound 1.265 µM) was 0.293. It also gave a relative viability (HCC-827; first compound 0.04 µM) of 0.88, a relative viability (HCC-827; first compound 0.1265 µM) of 0.95 and a relative viability (HCC-827; first compound 0.4 µM) of 0.897. The relative viability (HCC-827; first compound 1.265 µM) was 0.724, the relative viability (LC-2-ad; first compound 0.04 µM) was 0.496 and the relative viability (LC-2-ad; first compound 0.1265 µM) was 0.452. The relative viability (LC-2-ad; first compound 0.4 µM) was 0.412, the relative viability (LC-2-ad; first compound 1.265 µM) was 0.364 and the relative viability (LCLC-97TM1; first compound 0.04 µM) was 0.376. It also gave a relative viability (LCLC-97TM1; first compound 0.1265 µM) of 0.329, a relative viability (LCLC-97TM1; first compound 0.4 µM) of 0.234 and a relative viability (LCLC-97TM1; first compound 1.265 µM) of 0.326. For the same compound, the relative viability (NCI-H1666; first compound 0.04 µM) was 1.03, the relative viability (NCI-H1666; first compound 0.1265 µM) was 0.991 and the relative viability (NCI-H1666; first compound 0.4 µM) was 0.812. The relative viability (NCI-H1666; first compound 1.265 µM) was 0.365, the relative viability (NCI-H1915; first compound 0.04 µM) was 0.96 and the relative viability (NCI-H1915; first compound 0.1265 µM) was 0.898. For the same compound, the relative viability (NCI-H1915; first compound 0.4 µM) was 0.67, the relative viability (NCI-H1915; first compound 1.265 µM) was 0.636 and the relative viability (NCI-H2087; first compound 0.04 µM) was 0.853. For the same compound, the relative viability (NCI-H2087; first compound 0.1265 µM) was 0.75, the relative viability (NCI-H2087; first compound 0.4 µM) was 0.833 and the relative viability (NCI-H2087; first compound 1.265 µM) was 0.723. For the same compound, the relative viability (NCI-H2126; first compound 0.04 µM) was 1.04, the relative viability (NCI-H2126; first compound 0.1265 µM) was 1.03 and the relative viability (NCI-H2126; first compound 0.4 µM) was 0.995. For the same compound, the relative viability (NCI-H2126; first compound 1.265 µM) was 0.824, the relative viability (NCI-H2347; first compound 0.04 µM) was 0.621 and the relative viability (NCI-H2347; first compound 0.1265 µM) was 0.707. It also gave a relative viability (NCI-H2347; first compound 0.4 µM) of 0.642, a relative viability (NCI-H2347; first compound 1.265 µM) of 0.568 and a relative viability (NCI-H23; first compound 0.04 µM) of 0.689. For the same compound, the relative viability (NCI-H23; first compound 0.1265 µM) was 0.598, the relative viability (NCI-H23; first compound 0.4 µM) was 0.482 and the relative viability (NCI-H23; first compound 1.265 µM) was 0.484. It also gave a relative viability (NCI-H2405; first compound 0.04 µM) of 0.862, a relative viability (NCI-H2405; first compound 0.1265 µM) of 0.94 and a relative viability (NCI-H2405; first compound 0.4 µM) of 0.841. It also gave a relative viability (NCI-H2405; first compound 1.265 µM) of 0.715, a relative viability (NCI-H322M; first compound 0.04 µM) of 0.943 and a relative viability (NCI-H322M; first compound 0.1265 µM) of 0.918. For the same compound, the relative viability (NCI-H322M; first compound 0.4 µM) was 1.01, the relative viability (NCI-H322M; first compound 1.265 µM) was 0.839 and the relative viability (NCI-H520; first compound 0.04 µM) was 0.748. It also gave a relative viability (NCI-H520; first compound 0.1265 µM) of 1.02, a relative viability (NCI-H520; first compound 0.4 µM) of 0.744 and a relative viability (NCI-H520; first compound 1.265 µM) of 0.828. It also gave a relative viability (NCI-H647; first compound 0.04 µM) of 1.01, a relative viability (NCI-H647; first compound 0.1265 µM) of 1.08 and a relative viability (NCI-H647; first compound 0.4 µM) of 0.987. For the same compound, the relative viability (NCI-H647; first compound 1.265 µM) was 0.77, the relative viability (NCI-H650; first compound 0.04 µM) was 0.762 and the relative viability (NCI-H650; first compound 0.1265 µM) was 0.844. It also gave a relative viability (NCI-H650; first compound 0.4 µM) of 0.561, a relative viability (NCI-H650; first compound 1.265 µM) of 0.465 and a relative viability (NCI-H661; first compound 0.1265 µM) of 0.963. The relative viability (NCI-H661; first compound 0.4 µM) was 0.967, the relative viability (NCI-H661; first compound 1.265 µM) was 1.03 and the relative viability (PC-14; first compound 0.04 µM) was 0.931. The relative viability (PC-14; first compound 0.1265 µM) was 0.849, the relative viability (PC-14; first compound 0.4 µM) was 0.921 and the relative viability (PC-14; first compound 1.265 µM) was 0.672. The relative viability (RERF-LC-KJ; first compound 0.04 µM) was 0.795, the relative viability (RERF-LC-KJ; first compound 0.1265 µM) was 0.851 and the relative viability (RERF-LC-KJ; first compound 0.4 µM) was 0.823. For the same compound, the relative viability (RERF-LC-KJ; first compound 1.265 µM) was 0.766.
